Test results from patent US9700516B2, “Compositions and methods for reducing overdose” (priority 2014, dated 2017).

Assay: Effect of alkalinizing agents on the pH of a solution of 0.1 N HCl with a starting pH of 2.0
Assay type: physicochemical
Conditions: for pH of the solution: all tested amounts, over the times tested
Protocol: Various alkalinizing agents were added to a solution of 0.1 N HCl with a starting pH of 2.0 and the pH of the solution was tested at different time points.

O=C([O-])[O-].[Na+].[Na+] [sodium carbonate]
pH (11.13 mg/200 ml, 0 min): 2.66 | pH (11.13 mg/200 ml, 1 min): 2.80 | pH (11.13 mg/200 ml, 2 min): 2.80 | pH (11.13 mg/200 ml, 3 min): 2.80 | pH (11.13 mg/200 ml, 4 min): 2.80 | pH (11.13 mg/200 ml, 5 min): 2.80 | pH (11.13 mg/200 ml, 10 min): 2.80 | pH (11.13 mg/200 ml, 15 min): 2.80 | pH (11.13 mg/200 ml, 20 min): 2.80 | pH (11.13 mg/200 ml, 60 min): 2.80 | pH (30.11 mg/200 ml, 0 min): 2.57 | pH (30.11 mg/200 ml, 1 min): 3.21 | pH (30.11 mg/200 ml, 2 min): 3.24 | pH (30.11 mg/200 ml, 3 min): 3.25 | pH (30.11 mg/200 ml, 4 min): 3.25 | pH (30.11 mg/200 ml, 5 min): 3.26 | pH (30.11 mg/200 ml, 10 min): 3.27 | pH (30.11 mg/200 ml, 15 min): 3.27 | pH (30.11 mg/200 ml, 20 min): 3.27 | pH (30.11 mg/200 ml, 60 min): 3.27 | effect on pH of the solution (81.68 mg in 200 ml): raise the pH of the 200 ml solution to above neutral | pH (81.68 mg/200 ml, 0 min): 2.73 | pH (81.68 mg/200 ml, 1 min): 9.02 | pH (81.68 mg/200 ml, 2 min): 9 | pH (81.68 mg/200 ml, 3 min): 8.97 | pH (81.68 mg/200 ml, 4 min): 8.95 | pH (81.68 mg/200 ml, 5 min): 8.93 | pH (81.68 mg/200 ml, 10 min): 8.83 | pH (81.68 mg/200 ml, 15 min): 8.81 | pH (81.68 mg/200 ml, 20 min): 8.5 | pH (81.68 mg/200 ml, 60 min): 8.25 | pH of the solution: > 2.0

O=C([O-])CC(O)(CC(=O)[O-])C(=O)[O-].[Na+].[Na+].[Na+] [Sodium Citrate, sodium citrate]
pH (930 mg in 200 ml, 10 min): 5.53 | pH (930 mg in 200 ml, 20 min): 5.53 | pH (930 mg in 200 ml, 30 min): 5.53 | pH (930 mg in 200 ml, 40 min): 5.53 | pH (930 mg in 200 ml, 50 min): 5.53 | pH (930 mg in 200 ml, 60 min): 5.53

CC(=O)[O-].[Na+] [Sodium Acetate, sodium acetate]
pH (200 mg in 200 ml, 10 min): 4.73 | pH (200 mg in 200 ml, 20 min): 4.96 | pH (200 mg in 200 ml, 30 min): 5.08 | pH (200 mg in 200 ml, 40 min): 5.21 | pH (200 mg in 200 ml, 50 min): 5.34 | pH (200 mg in 200 ml, 60 min): 5.34

O=C([O-])O.[Na+] [sodium bicarbonate]
pH (20 mg per 320 mL, 0 min): 2.02 | pH (20 mg per 320 mL, 1 min): 2.04 | pH (20 mg per 320 mL, 2 min): 2.05 | pH (20 mg per 320 mL, 3 min): 2.05 | pH (20 mg per 320 mL, 4 min): 2.05 | pH (20 mg per 320 mL, 5 min): 2.05 | pH (20 mg per 320 mL, 6 min): 2.05 | pH (20 mg per 320 mL, 7 min): 2.05 | pH (20 mg per 320 mL, 8 min): 2.05 | pH (20 mg per 320 mL, 9 min): 2.05 | pH (20 mg per 320 mL, 10 min): 2.05 | pH (20 mg per 320 mL, 20 min): 2.05 | pH (20 mg per 320 mL, 30 min): 2.05 | pH (20 mg per 320 mL, 40 min): 2.05 | pH (20 mg per 320 mL, 50 min): 2.05 | pH (20 mg per 320 mL, 60 min): 2.05 | effect on pH of the solution (20 mg/320 ml and 40 mg/320 ml, 60 minute timecourse): neither amount tested was sufficient to raise the pH to neutral or higher | pH (40 mg per 320 mL, 0 min): 2.05 | pH (40 mg per 320 mL, 1 min): 2.08 | pH (40 mg per 320 mL, 2 min): 2.08 | pH (40 mg per 320 mL, 3 min): 2.08 | pH (40 mg per 320 mL, 4 min): 2.08 | pH (40 mg per 320 mL, 5 min): 2.09 | pH (40 mg per 320 mL, 6 min): 2.09 | pH (40 mg per 320 mL, 7 min): 2.09 | pH (40 mg per 320 mL, 8 min): 2.09 | pH (40 mg per 320 mL, 9 min): 2.09 | pH (40 mg per 320 mL, 10 min): 2.09 | pH (40 mg per 320 mL, 20 min): 2.09 | pH (40 mg per 320 mL, 30 min): 2.09 | pH (40 mg per 320 mL, 40 min): 2.09 | pH (40 mg per 320 mL, 50 min): 2.09 | pH (40 mg per 320 mL, 60 min): 2.09 | pH (50 mg/200 ml, 0 min): 1.71 | pH (50 mg/200 ml, 10 min): 1.72 | pH (50 mg/200 ml, 20 min): 1.72 | pH (50 mg/200 ml, 30 min): 1.72 | pH (50 mg/200 ml, 40 min): 1.72 | pH (100 mg/200 ml, 0 min): 1.71 | pH (100 mg/200 ml, 10 min): 1.76 | pH (100 mg/200 ml, 20 min): 1.75 | pH (100 mg/200 ml, 30 min): 1.75 | pH (100 mg/200 ml, 40 min): 1.75 | effect on pH of the solution (50 and 100 mg/200 ml, 40 minute timecourse): neither tested amount was sufficient to raise the pH | pH of the solution: above 2.0
